Values quoted from earlier work, collected in patent US20110308985A1, “COMPOSITION OF A LIPOSOMAL GEL CONTAINING HYDROCORTISONE, ITS METABOLITES, PRECURSORS OR MIXTURES THEREOF AND THE USE THEREOF” (priority 2009, published 2011).

serum peak relative to the physiological morning peak (about 1 hour after intake of a tablet): over 3 times
biological half-life (oral administration form): about 100 minutes
SMILES: C[C@]12CCC(=O)C=C1CC[C@@H]1[C@@H]2[C@@H](O)C[C@@]2(C)[C@H]1CC[C@]2(O)C(=O)CO [hydrocortisone, (11beta)-11,17,21-trihydroxypregn-4-ene-3,20-dione]
